Reference: US8574633B2 (priority 2004, dated 2013)
“And” between values parts separate entries of the source, which are not always exact repeats. Identical values can stand only once.

System: ICR mice
Experimental: 2.experimental animals: ICR mice, SPF, male and female, body weight 18-20 g, all bought from Shanghai SIPPR/BK Experimental Animal Co. Laboratory animal license No. SCXK (Hu)2003-0002
3. experimental conditions: SPF experimental environment. Grouped the experimental mice 5 per cage and bred. The breeding temperature was 22±2° C., the humidity was 60-70% and Laboratory animal license number was SCXK (Hu)2002-0035. The mice were bred with the solid high pressure forage. Fasted 12 hours before the test but no water-deprivation.
After administration, the mice were liberated to diet. Observed the mice once immediately, every morning and every afternoon for 7 continuous days. The mice were observed once a day from the 8th day. Record the mortality and toxic reaction of the experimental animals.

SMILES: C/C=C1\[C@H]2C=C(C)C[C@]1(N)c1ccc(=O)[nH]c1C2 [Control medicine, Huperzine A]
- content of HupA at the LD50 of the composition (HupA part of the LD50 dose): 6.03 mg/kg
- LD50 (ICR mice, intragastric, simplified probit method, confidence limit 95%): 6.03 ± 1.46 mg/kg and 6.03 mg/kg
